Measurements as given in ChEMBL document CHEMBL5120901, “Batatasin III, a Constituent of Dendrobium scabrilingue, Improves Murine Pain-like Behaviors with a Favorable CNS Safety Profile” (J Nat Prod, 2022).
Activity calls are given as the source filed them. The rule behind the calls is not given here.

How the values were obtained:
Mus musculus [1] = test: Analgesic activity against formalin-induced inflammatory pain-like behaviour ICR mouse model assessed as inhibition of hind paw licking behaviour at 50 mg/kg, ip administered 60 mins prior to formalin challenge and measured after 10 to 40 mins by formalin test; type: functional; conditions: time 70-100 min
Mus musculus [2] = test: Analgesic activity against formalin-induced inflammatory pain-like behaviour ICR mouse model assessed as inhibition of hind paw licking behaviour at 12.5 to 50 mg/kg, ip administered 60 mins prior to formalin challenge and measured after 10 to 40 mins by formalin test; type: functional, organism-based; conditions: dose 12.5-50 mg/kg, time 70-100 min, DDE = dose-dependent effect
Mus musculus [3] = test: Anti-inflammatory activity against LPS-induced inflammatory pain-like behaviour ICR mouse model assessed as improvement in locomotor activity by measuring increased mobile behaviours at 50 mg/kg, ip treated with LPS for 2 hrs followed by drug administration for 1 hr and measured for 5 mins by LABORAS analysis; type: functional, organism-based; conditions: time 65.0 min
Mus musculus [4] = test: Anti-inflammatory activity against LPS-induced inflammatory pain-like behaviour ICR mouse model assessed as improvement in locomotor activity by measuring increase in animal's movement speed in LABORAS arena at 50 mg/kg, ip treated with LPS for 2 hrs followed by drug administration for 1 hr and measured for 5 mins by LABORAS analysis; type: functional, organism-based; conditions: time 65.0 min
Mus musculus [5] = test: Anti-inflammatory activity against LPS-induced inflammatory pain-like behaviour ICR mouse model assessed as improvement in locomotor activity by measuring increase in distance travelled in LABORAS arena at 50 mg/kg, ip treated with LPS for 2 hrs followed by drug administration for 1 hr and measured for 5 mins by LABORAS analysis; type: functional, organism-based; conditions: time 65.0 min
Mus musculus [6] = test: Anti-inflammatory activity against LPS-induced inflammatory pain-like behaviour ICR mouse model assessed as improvement in locomotor activity by measuring decrease in immobility behaviour at 50 mg/kg, ip treated with LPS for 2 hrs followed by drug administration for 1 hr and measured for 5 mins by LABORAS analysis; type: functional, organism-based; conditions: time 65.0 min
Mus musculus [7] = test: Anti-inflammatory activity against LPS-induced inflammatory pain-like behaviour ICR mouse model assessed as reduction in TNF-alpha levels in plasma at 50 mg/kg, ip treated with LPS for 2 hrs followed by drug administration for 1 hr by ELISA; type: functional, organism-based
Mus musculus [8] = test: Anti-inflammatory activity against LPS-induced inflammatory pain-like behaviour ICR mouse model assessed as reduction in IL-6 levels in plasma at 50 mg/kg, ip treated with LPS for 2 hrs followed by drug administration for 1 hr by ELISA; type: functional, organism-based
RAW264.7 [9] = test: Cytotoxicity against mouse RAW264.7 cells assessed as reduction in cell viability at 100 uM incubated for 24 hrs by MTT assay; type: toxicity, cell-based; conditions: raw264.7, 24 h
BV-2 [10] = test: Cytotoxicity against […] cells assessed as reduction in cell viability at 100 uM incubated for 24 hrs by MTT assay; type: toxicity, cell-based; conditions: mouse, bv-2, 24 h
RAW264.7 [11] = test: Anti-inflammartory activity in mouse RAW264.7 cells assessed as inhibition of LPS-induced NO production pretreated with compound for 1 hr followed by incubation with LPS for 12 hrs by Griess reagent based analysis; type: functional, cell-based; conditions: dose 12.5-50 µM, time 13.0 hrs, DDE = dose-dependent effect
RAW264.7 [12] = test: Anti-inflammartory activity against LPS-activated mouse RAW264.7 cells assessed as reduction in TNF-alpha levels pretreated with compound for 1 hr followed by incubation with LPS for 12 hrs by ELISA; type: functional, cell-based; conditions: dose 12.5-50 µM, time 13.0 hrs, DDE = dose-dependent effect
[13] = CNS toxicity in naive ICR mouse assessed as motor coordination at 50 mg/kg, ip measured after 240 mins by rotarod test; type: organism-based; conditions: in vivo, 4 h
RAW264.7 [14] = test: Anti-inflammartory activity against LPS-activated mouse RAW264.7 cells assessed as reduction in IL-6 levels pretreated with compound for 1 hr followed by incubation with LPS for 12 hrs by ELISA; type: functional, cell-based; conditions: dose 12.5-50 µM, time 13.0 hrs, DDE = dose-dependent effect
BV-2 [15] = test: Anti-inflammatory activity in […] cells assessed as inhibition of LPS-induced NO production pretreated with compound for 1 hr followed by coincubation with LPS for 24 hrs by Griess reagent based analysis; type: functional, cell-based; conditions: Mus musculus, dose 12.5-50 µM, time 25.0 hrs, DDE = dose-dependent effect
BV-2 [16] = test: Anti-inflammartory activity against LPS-activated […] cells assessed as reduction in TNF-alpha levels pretreated with compound for 1 hr followed by co-incubation with LPS for 24 hrs by ELISA; type: functional, cell-based; conditions: Mus musculus, dose 12.5-50 µM, time 25.0 hrs, DDE = dose-dependent effect
BV-2 [17] = test: Anti-inflammartory activity against LPS-activated […] cells assessed as reduction in IL-6 levels pretreated with compound for 1 hr followed by co-incubation with LPS for 24 hrs by ELISA; type: functional, cell-based; conditions: Mus musculus, dose 12.5-50 µM, time 25.0 hrs, DDE = dose-dependent effect
[18] = CNS toxicity in naive ICR mouse assessed as spontaneous locomotor activity by measuring climbing behaviour at 50 mg/kg, ip and measured for 30 mins by LABORAS automated behavioral analysis; type: organism-based; conditions: in vivo, 0.5 h
[19] = CNS toxicity in naive ICR mouse assessed as spontaneous locomotor activity at 50 mg/kg, ip and measured for 30 mins by LABORAS automated behavioral analysis; type: organism-based; conditions: in vivo, 0.5 h
[20] = CNS toxicity in naive ICR mouse assessed as spontaneous locomotor activity by measuring immobility behaviour at 50 mg/kg, ip and measured for 30 mins by LABORAS automated behavioral analysis; type: organism-based; conditions: in vivo, 0.5 h
[21] = CNS toxicity in naive ICR mouse assessed as spontaneous locomotor activity by measuring rearing behaviour at 50 mg/kg, ip and measured for 30 mins by LABORAS automated behavioral analysis; type: organism-based; conditions: in vivo, 0.5 h
[22] = CNS toxicity in naive ICR mouse assessed as spontaneous locomotor activity by measuring animal's movement speed in arena at 50 mg/kg, ip and measured for 30 mins by LABORAS automated behavioral analysis; type: organism-based; conditions: in vivo, 0.5 h
[23] = CNS toxicity in naive ICR mouse assessed as spontaneous locomotor activity by measuring distance travelled in arena at 50 mg/kg, ip and measured for 30 mins by LABORAS automated behavioral analysis; type: organism-based; conditions: in vivo, 0.5 h
[24] = Toxicity in naive ICR mouse assessed as effect on food intake at 50 mg/kg, ip measured after 24 hrs; type: organism-based; conditions: in vivo
[25] = CNS toxicity in naive ICR mouse assessed as spontaneous locomotor activity by measuring climbing behaviour at 50 mg/kg, ip and measured for 2 hrs by LABORAS automated behavioral analysis; type: organism-based; conditions: in vivo
[26] = CNS toxicity in naive ICR mouse assessed as spontaneous locomotor activity at 50 mg/kg, ip and measured for 2 hrs by LABORAS automated behavioral analysis; type: organism-based; conditions: in vivo
[27] = CNS toxicity in naive ICR mouse assessed as spontaneous locomotor activity by measuring immobility behaviour at 50 mg/kg, ip and measured for 2 hrs by LABORAS automated behavioral analysis; type: organism-based; conditions: in vivo
[28] = CNS toxicity in naive ICR mouse assessed as spontaneous locomotor activity by measuring rearing behaviour at 50 mg/kg, ip and measured for 2 hrs by LABORAS automated behavioral analysis; type: organism-based; conditions: in vivo
[29] = CNS toxicity in naive ICR mouse assessed as spontaneous locomotor activity by measuring anaimal's movement speed in arena at 50 mg/kg, ip and measured for 2 hrs by LABORAS automated behavioral analysis; type: organism-based; conditions: in vivo
[30] = CNS toxicity in naive ICR mouse assessed as spontaneous locomotor activity by measuring distance travelled in arena at 50 mg/kg, ip and measured for 2 hrs by LABORAS automated behavioral analysis; type: organism-based; conditions: in vivo
[31] = Toxicity in naive ICR mouse assessed as effect on body weight at 50 mg/kg, ip measured after 24 hrs; type: organism-based; conditions: in vivo
[32] = Toxicity in naive ICR mouse assessed as effect on water intake at 50 mg/kg, ip measured after 24 hrs; type: organism-based; conditions: in vivo

Structure (SMILES): COc1cc(O)cc(CCc2cccc(O)c2)c1 [BATATASIN III]
- inhibition in vivo at 50 mg/kg (Mus musculus [1]): 69.9%
- Activity (Mus musculus [2]): Dde
- Activity (Mus musculus [3]): Active
- Activity (Mus musculus [4]): Active
- Activity (Mus musculus [5]): Active
- Activity (Mus musculus [6]): Active
- Activity (Mus musculus [7]): Active
- Activity (Mus musculus [8]): Active
- Activity (RAW264.7 [9]): Toxic
- Activity (BV-2 [10]): Toxic
- Activity (RAW264.7 [11]): Dde
- Activity (RAW264.7 [12]): Dde
- Activity [13]: Non-Toxic
- Activity (RAW264.7 [14]): Dde
- Activity (BV-2 [15]): Dde
- Activity (BV-2 [16]): Dde
- Activity (BV-2 [17]): Dde
- Activity [18]: Non-Toxic
- Activity [19]: Non-Toxic
- Activity [20]: Non-Toxic
- Activity [21]: Non-Toxic
- Activity [22]: Non-Toxic
- Activity [23]: Non-Toxic
- Activity [24]: Non-Toxic
- Activity [25]: Non-Toxic
- Activity [26]: Non-Toxic
- Activity [27]: Non-Toxic
- Activity [28]: Non-Toxic
- Activity [29]: Non-Toxic
- Activity [30]: Non-Toxic
- Activity [31]: Non-Toxic
- Activity [32]: Non-Toxic
